Test results reported in ChEMBL document CHEMBL3244110, “Synthesis and biological evaluation of some 2-amino-4-aryl-3H-1,5-benzodiazepine analogues of clozapine” (J Med Chem, 1978).
Active and inactive are the calls of the source. The calls are words filed in the database; no cut-off is given here.

How the values were obtained:
[1] = tested on: Mus musculus; assay: Antipsychotic activity in mouse assessed as protection against amphetamine-induced lethality at 5 mg/kg, ip treated 30 mins before amphetamine challenge; assay type: functional, organism-based; design: dose 5 mg/kg
[2] = tested on: Mus musculus; assay: Antipsychotic activity in mouse assessed as protection against amphetamine-induced lethality at 50 mg/kg, ip treated 30 mins before amphetamine challenge; assay type: functional, organism-based; design: dose 50 mg/kg
[3] = tested on: Rattus norvegicus; assay: Antipsychotic activity in 0.2 mA footshock-induced conditioned stimulus rat assessed as decrease in avoidance response at 5 mg/kg, ip after 30 mins; assay type: functional, organism-based; design: dose 5 mg/kg
[4] = tested on: Rattus norvegicus; assay: Antipsychotic activity in 0.2 mA footshock-induced conditioned stimulus rat assessed as decrease in avoidance response at 20 mg/kg, ip after 30 mins; assay type: functional, organism-based; design: dose 20 mg/kg
[5] = tested on: Mus musculus; assay: Antipsychotic activity in mouse assessed as increase in brain dopamine turnover at 25 to 30 mg/kg, ip pretreated with 200 mg/kg, ip alpha-methyl-p-tyrosine tyrosine hydroxylase inhibitor; assay type: functional, organism-based
[6] = tested on: Mus musculus; assay: Toxicity in mouse assessed as ptosis at 30 mg/kg, ip; assay type: organism-based; design: dose 30 mg/kg, route intraperitoneal; settings: in vivo

Clc1ccc(C2CCN(C3=Nc4ccccc4N=C(c4ccccc4)C3)CC2)cc1
Activity [1]: Active | Activity [2]: inactive | Activity [3]: inactive | Activity [4]: inactive | Activity [5]: inactive | Activity [6]: Toxic
